Molecules are shown by their SMILES. Several values for one entry are separate records, joined by “and”; a condition that tells them apart may be missing. Equal values may be shown once.

Data set [1] concerns UGT enzymes of human liver microsomes. As to the kind of experiment: Inhibition of estradiol (E2) glucuronidation in human liver microsomes. Format: biochemical. The settings on record: E2 50 μM. The text has this:
(§1) Compounds were eluted using a binary solvent gradient system where solvent A was dilute phosphoric acid (pH 3) and solvent B was 80:20 acetonitrile-methanol. […] Detection was at 280 nm.

The test system of data set [2] is T1, UGT enzymes of human liver microsomes.
T1 construct: residual metabolism (% of control), E2-17-β-D-glucuronide; other: liver 032101; residual metabolism (% of control), E2-17-β-D-glucuronide
The description is as above. Format: biochemical. The settings on record: liver 032101, E2 50 μM.
Excerpt: as §1

The test system of data set [3] is UGT enzymes of human liver microsomes. As to the kind of experiment: Inhibition of labetalol glucuronidation (LG1, LG2) in human liver microsomes. The conditions noted are these: labetalol 50 μM. Format: biochemical.
Data set [4] relates to T2, UGT enzymes of human liver microsomes.
T2 construct: percentage of control metabolism, 7-HFC glucuronidation; percentage of control metabolism, 7-HFC glucuronidation
Nature of the data set: Inhibition of 7-HFC glucuronidation in human liver microsomes. Format: biochemical. The settings on record: for % of control metabolism (SD, n = 3), 7-HFC glucuronidation: 7-HFC 50 μM, human liver microsomes 100 μg/ml, 15 min.

Data set [5] concerns UGT enzymes of pooled human jejunum microsomes. As to the kind of experiment: Inhibition of raloxifene glucuronidation (G1, G2) in pooled human jejunum microsomes. Format: biochemical. The settings on record: jejunum HJ61. Here is the method: Compounds were eluted using a binary solvent gradient system. […] Solvent B was methanol. […] Detection was at 280 nm.
Standardized incubations utilized […] microsomal protein, 1 mM UDPGA and a 30 min incubation time.

Another data set deals with T3, UGT1A3 (Homo sapiens, UniProt P35503).
T3 sequence (P35503 29-534): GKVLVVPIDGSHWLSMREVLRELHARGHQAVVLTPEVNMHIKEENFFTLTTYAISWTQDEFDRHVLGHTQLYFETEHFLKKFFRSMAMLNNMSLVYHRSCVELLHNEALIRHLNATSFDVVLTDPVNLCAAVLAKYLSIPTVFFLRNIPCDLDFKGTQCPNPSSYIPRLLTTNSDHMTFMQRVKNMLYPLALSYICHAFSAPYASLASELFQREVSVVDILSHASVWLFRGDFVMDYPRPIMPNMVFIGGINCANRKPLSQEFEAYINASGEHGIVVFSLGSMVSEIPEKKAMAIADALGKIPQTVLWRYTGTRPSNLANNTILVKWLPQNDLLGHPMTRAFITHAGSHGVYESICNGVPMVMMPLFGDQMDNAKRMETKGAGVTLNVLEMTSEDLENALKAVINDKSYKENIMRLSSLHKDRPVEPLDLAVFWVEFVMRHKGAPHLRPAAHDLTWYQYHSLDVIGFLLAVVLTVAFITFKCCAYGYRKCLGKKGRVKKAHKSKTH
Nature of the data set: in vitro.

In another data set the target is T4, UGT1A10 (Homo sapiens, UniProt Q9HAW8).
T4 sequence (Q9HAW8 26-530): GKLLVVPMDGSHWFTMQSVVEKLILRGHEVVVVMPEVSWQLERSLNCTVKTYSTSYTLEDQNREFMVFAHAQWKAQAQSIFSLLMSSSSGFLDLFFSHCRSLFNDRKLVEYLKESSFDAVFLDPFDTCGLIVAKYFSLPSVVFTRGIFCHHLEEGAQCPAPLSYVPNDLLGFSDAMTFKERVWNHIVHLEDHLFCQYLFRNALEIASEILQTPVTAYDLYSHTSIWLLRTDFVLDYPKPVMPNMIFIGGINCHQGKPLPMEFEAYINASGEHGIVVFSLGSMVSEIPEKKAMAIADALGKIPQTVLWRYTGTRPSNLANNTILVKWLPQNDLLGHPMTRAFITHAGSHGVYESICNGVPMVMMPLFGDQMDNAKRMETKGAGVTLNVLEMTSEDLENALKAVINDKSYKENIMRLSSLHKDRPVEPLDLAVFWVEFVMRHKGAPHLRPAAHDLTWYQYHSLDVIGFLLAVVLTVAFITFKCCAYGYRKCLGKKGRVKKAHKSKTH
As to the kind of experiment: in vitro. The conditions noted are these: pH 7.5, % of control metabolism.

In data set [6] the test system is T5, UGT enzymes of human liver microsomes.
T5 construct: other: liver 062101
Nature of the data set: Inhibition of 2ME2 glucuronidation (MG1, MG2) in human liver microsomes. The conditions noted are these: liver 062101, 2ME2 50 μM. Type of data set: biochemical.
Excerpt: as §1

In another data set the target is T6, UGT1A8 (Homo sapiens, UniProt Q9HAW9).
T6 sequence (Q9HAW9 26-530): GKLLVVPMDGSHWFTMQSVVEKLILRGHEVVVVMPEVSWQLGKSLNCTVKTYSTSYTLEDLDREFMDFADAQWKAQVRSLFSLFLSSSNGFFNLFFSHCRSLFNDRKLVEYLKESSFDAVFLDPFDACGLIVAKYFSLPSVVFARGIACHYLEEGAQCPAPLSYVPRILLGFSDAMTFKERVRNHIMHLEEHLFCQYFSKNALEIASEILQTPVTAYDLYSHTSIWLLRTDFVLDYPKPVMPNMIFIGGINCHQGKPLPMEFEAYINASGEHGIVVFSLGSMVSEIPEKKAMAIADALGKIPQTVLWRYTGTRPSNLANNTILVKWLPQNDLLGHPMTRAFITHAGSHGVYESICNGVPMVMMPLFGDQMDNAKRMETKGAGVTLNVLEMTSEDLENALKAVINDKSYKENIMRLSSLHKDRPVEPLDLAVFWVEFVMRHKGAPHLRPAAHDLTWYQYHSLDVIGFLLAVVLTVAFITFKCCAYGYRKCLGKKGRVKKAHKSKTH
Nature of the data set: in vitro. The conditions noted are these: pH 7.5, % of control metabolism.

Where [7] appears, read: pH 7.5, % of control metabolism, raloxifene G1.
[8] abbreviates: pH 7.5, % of control metabolism, raloxifene G2.
[9] abbreviates: pH 7.5, Inhibition of raloxifene glucuronidation, G1, UGT1A3.
Where [10] appears, read: pH 7.5, Inhibition of raloxifene glucuronidation, G2, UGT1A3.

Experimental for UGT1A10: (§2) Compounds were eluted using a binary solvent gradient system. Solvent A was water brought to pH 8 with NH4OH. Solvent B was methanol. Solvent flow rate was 1 ml/min and the column temperature was maintained at 50° C. Detection was at 280 nm. […] The system was then returned to the initial conditions and equilibrated for 3 min.
Experimental for UGT1A3: as §2
Experimental for UGT1A8: as §2

As to `CC/C(=C(/CC)c1ccc(O)cc1)c1ccc(O)cc1` [Diethylstilbestrol, reference compound], the “residual metabolism (% of control), E2-3-β-D-glucuronide” value is 85 (1), % in data set [1] (liver 032101, inhibitor 1 μM); 57 (4), % in data set [1] (liver 032101, inhibitor 10 μM); 86 (3) % in data set [1] (liver 062101, inhibitor 1 μM); 71 (2) % in data set [1] (liver 062101, inhibitor 10 μM). Moreover, the “residual metabolism (% of control), E2-17-β-D-glucuronide” value in data set [1] (liver 032101, inhibitor 1 μM) is given as 361 (6) %; in [1] (liver 032101, inhibitor 10 μM), 545 (32) %; in data set [1] (liver 062101, inhibitor 1 μM), 254 (2) %; in data set [1] (liver 062101, inhibitor 10 μM), 446 (7) %; in data set [2] (inhibitor 100 μM), 217 (5) %. Moreover, the “residual metabolism (percentage of control), labetalol LG1” value is 66 (6) % in [3] (inhibitor 10 μM) and 39 (1) % in [3] (inhibitor 25 μM). For the same molecule, the “residual metabolism (percentage of control), labetalol LG2” value in [3] (inhibitor 10 μM) is 68 (7) %; in [3] (inhibitor 25 μM), 45 (3) %. In addition, the “percentage of control metabolism, 7-HFC glucuronidation” value (“percentage of control metabolism” for short) is 57 (1) % in data set [4] (inhibitor 25 μM); 34 (2) % in data set [4] (inhibitor 50 μM); 11 (1) % in data set [4] (inhibitor 100 μM); 1 (0) % in data set [4] (inhibitor 200 μM); 0.1 (0) % in [4] (inhibitor 500 μM). For the same molecule, the “% of control metabolism (SD, n = 3), 7-HFC glucuronidation” value in data set [4] (inhibitor 25 μM) is 57 (1) %; in data set [4] (inhibitor 50 μM), 34 (2) %; in data set [4] (inhibitor 100 μM), 11 (1) %; in data set [4] (inhibitor 200 μM) it was 1 (0) %; in [4] (inhibitor 500 μM), 0.1 (0) %. Moreover, the “% of control metabolism, raloxifene G1” value in data set [5] (inhibitor 10 μM) is 78 (0) %. For the same molecule, the “% of control metabolism, raloxifene G2” value in data set [5] (inhibitor 10 μM) is recorded as 90 (4) %.

Consider `O=C(O)c1cc(-c2ccc(F)cc2F)ccc1O` [Diflunisal, reference compound], for which, in data set [1] (liver 062101, inhibitor 100 μM), the “residual metabolism (% of control), E2-3-β-D-glucuronide” value was 59 (2), obs %. Also, the activity at 15 min, 50 µM at UGT1A3 (setting [7]) was determined as 83%; on UGT1A3 (setting [8]), 81%; at UGT1A3 (setting [9]), 83%; at UGT1A3 (setting [10]), 81%; on UGT1A10 (raloxifene G1), 90%; at UGT1A10 (raloxifene G2), 90%. The activity at 15 min, 50 µM stood at 81% at UGT1A8 (raloxifene G1) and 126% at UGT1A8 (raloxifene G2). In addition, the entries for the “residual metabolism (% of control), 2ME2 MG1” value in data set [6] (inhibitor 50 μM) and in data set [6] (inhibitor 100 μM) were 63 (2) % and 49 (1) %, respectively. The “residual metabolism (% of control), 2ME2 MG2” value in data set [6] (inhibitor 50 μM) is reported as 90 (5) %; in data set [6] (inhibitor 100 μM), 91 (1) %. Further, the “residual metabolism (percentage of control), labetalol LG1” value in data set [3] (inhibitor 500 μM) is given as 43 (5) %. Also, in data set [3] (inhibitor 500 μM), the “residual metabolism (percentage of control), labetalol LG2” value was 35 (2) %. Also, the “percentage of control metabolism” value in data set [4] (inhibitor 100 μM) was 77 (2) %; in data set [4] (inhibitor 200 μM), 65 (3) %; in [4] (inhibitor 500 μM), 37 (1) % and 38 (0) %. For the same molecule, the “% of control metabolism (SD, n = 3), 7-HFC glucuronidation” value is 77 (2) % in data set [4] (inhibitor 100 μM); 65 (3) % in data set [4] (inhibitor 200 μM); 37 (1), % and 38 (0) % in [4] (inhibitor 500 μM). The “% of control metabolism, raloxifene G1” value in data set [5] (inhibitor 50 μM) is given as 69 (3) %. Also, the “% of control metabolism, raloxifene G2” value in data set [5] (inhibitor 50 μM) is given as 93 (6) %.

Regarding `O=C(O[C@@H]1Cc2c(O)cc(O)cc2O[C@@H]1c1cc(O)c(O)c(O)c1)c1cc(O)c(O)c(O)c1` [Epigallocatechin gallate], the “residual metabolism (% of control), E2-3-β-D-glucuronide” value in data set [1] (liver 062101, inhibitor 50 μM) is given as 45 (2) %. For the same molecule, the “residual metabolism (% of control), E2-17-β-D-glucuronide” value in data set [1] (liver 062101, inhibitor 50 μM) is 70 (1) %; in data set [2] (inhibitor 50 μM), 82 (2) %. The “residual metabolism (% of control), 2ME2 MG1” value in [6] (inhibitor 25 μM) is given as 61 (1) %; in data set [6] (inhibitor 50 μM), 48 (2) %; in data set [6] (inhibitor 100 μM), 29 (1) %. The “residual metabolism (% of control), 2ME2 MG2” value is 79 (0) % in data set [6] (inhibitor 25 μM), 71 (1) % in [6] (inhibitor 50 μM) and 35 (1) % in [6] (inhibitor 100 μM). For the same molecule, the “percentage of control metabolism” value is 67 (1) % in [4] (inhibitor 100 μM), 37 (2) % in [4] (inhibitor 200 μM) and 5 (1) % in data set [4] (inhibitor 500 μM). In addition, the “% of control metabolism (SD, n = 3), 7-HFC glucuronidation” value is 67 (1) % in data set [4] (inhibitor 100 μM), 37 (2) % in data set [4] (inhibitor 200 μM) and 5 (1) % in [4] (inhibitor 500 μM). In addition, in [5] (inhibitor 50 μM), the “% of control metabolism, raloxifene G1” value is given as 38 (2) %. Besides, the “% of control metabolism, raloxifene G2” value in data set [5] (inhibitor 50 μM) is 35 (4) %.

On to `CC(CCc1ccccc1)NCC(O)c1ccc(O)c(C(N)=O)c1` (stereo not shown) [Labetalol, labetalol], for which the “% of control metabolism (SD, n = 3), 7-HFC glucuronidation” value in [4] (inhibitor 500 μM) is 95 (2) %.

With `CCCOC(=O)c1cc(O)c(O)c(O)c1` [Propyl gallate], the activity at 15 min, 50 µM on UGT1A3 (setting [7]) amounted to 55%; on UGT1A3 (setting [8]), 56%; at UGT1A3 (setting [9]) it was 55%; on UGT1A3 (setting [10]), 56%; at UGT1A10 (raloxifene G1), 80%; at UGT1A10 (raloxifene G2), 72%. Also, the activity at 15 min, 25 µM is 72% on UGT1A3 (setting [9]) and 79% at UGT1A3 (setting [10]). The “% of control metabolism (SD, n = 3), 7-HFC glucuronidation” value in [4] (inhibitor 200 μM) is 71 (1) %; in [4] (inhibitor 500 μM) it was 63 (0), % and 59 (1) %.
